For one assay, the system named is C. albicans SC5314. The assay can be described thus: In vitro growth assay (MIC) in YNB broth with glucose or acetate. The assay is classed as cell-based, Candida albicans. Conditions: 3 days at 28 °C; for MIC: Candida albicans, 72 h. The protocol:
The microbial strategy for survival during growth in a nutrient-free environment entails a metabolic shift in the carbon source to C2 substrates generated by β-oxidation of fatty acids. […] To investigate whether ICL inhibitors affected C2 substrate use, we cultured C. albicans strain SC5314 in YNB broth containing either 2% glucose or 2% potassium acetate as the sole carbon source, and inhibition was evaluated based on the MIC.
C. albicans strains were grown in YNB ([…] yeast nitrogen base) broth containing 2% glucose at 28 °C for 24 h, harvested by centrifugation, and washed twice with sterile distilled water. Each test compound was dissolved in DMSO and diluted with YNB containing 2% glucose or 2% potassium acetate to prepare serial twofold dilutions in the range 100–0.1 μg/mL. The final DMSO concentration was maintained at 0.5% by adding DMSO to the medium. Twenty microliters of the broth containing test fungus was added to each well of a 96-well microtiter plate (final concentration of 1 × 10^4 cells/mL). Culture plates were incubated for 3 days at 28 °C. […] Amphotericin B was used as a reference compound.

Assay [1] deals with T1, recombinant ICL from C. albicans ATCC 10231 (Candida albicans, UniProt Q9P8Q7).
T1 construct: thioredoxin (fusion partner of the pBAD/Thio-TOPO vector); made in house; host or cells: Escherichia coli TOP10
T1 sequence (Q9P8Q7 whole entry, the tested form may be a part): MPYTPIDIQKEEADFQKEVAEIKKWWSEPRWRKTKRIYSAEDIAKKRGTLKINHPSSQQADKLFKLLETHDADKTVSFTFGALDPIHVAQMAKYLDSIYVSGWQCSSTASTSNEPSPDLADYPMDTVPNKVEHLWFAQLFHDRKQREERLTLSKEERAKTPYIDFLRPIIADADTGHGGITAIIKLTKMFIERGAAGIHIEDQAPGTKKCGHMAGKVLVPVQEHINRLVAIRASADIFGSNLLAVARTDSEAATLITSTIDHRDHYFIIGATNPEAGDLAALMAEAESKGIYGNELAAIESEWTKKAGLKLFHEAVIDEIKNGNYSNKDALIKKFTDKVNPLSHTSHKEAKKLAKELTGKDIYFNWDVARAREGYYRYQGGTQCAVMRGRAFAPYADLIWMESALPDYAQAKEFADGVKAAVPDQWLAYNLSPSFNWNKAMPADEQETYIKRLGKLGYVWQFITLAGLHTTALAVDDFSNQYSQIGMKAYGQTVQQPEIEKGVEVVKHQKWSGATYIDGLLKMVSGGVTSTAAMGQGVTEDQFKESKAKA
In words: biochemical. As to the method:
Compound 1−9 were obtained as mentioned previously (Figure 1). The expression and purification of recombinant ICL from the genomic DNA of C. albicans (ATCC 10231) were carried out by a method described previously. The inhibitory effects of the isolated compounds on ICL were evaluated according to a procedure documented previously. The basic concept of this method was to measure spectrophotometrically the formation of glyoxylate phenylhydrazone in the presence of phenylhydrazine and isocitrate. The effect of the inhibitor on ICL was calculated as a percentage relative to dimethyl sulfoxide (DMSO)-treated control. Mixture of ICL, substrate, phenyhydrazine was incubated for 30 min with various concentrations of suvanine sesterterpenes (100 to 0.1 μg/mL). The formation of glyoxylate phenylhydrazone was followed spectrophotometrically at 324 nm. Data were scaled to internal controls, and a four- parameter logistic model (GraphPad ver. 5.0, Prism) was used to fit the measured data and determine IC50 (inhibitory concentration for 50% activity) values.
The preparation of recombinant ICL protein from the genomic DNA of C. albicans ATCC 10231 was carried out using a method described previously. Briefly, ICL was PCR-amplified using two synthetic primers: 5′-[…]-3′ (forward) and 5′-[…]-3′ (reverse). The PCR product was cloned into the pBAD/Thio-TOPO vector (Invitrogen, Carlsbad, CA, USA) and transformed into Escherichia coli TOP10 (Invitrogen).
The effect of isolated compounds on ICL was evaluated according to a procedure documented previously. A 1-mL aliquot of the reaction mixture contained 20 mM sodium phosphate buffer (pH 7.0), 1.27 mM threo-DL (+) isocitrate, 3.75 mM MgCl2, 4.1 mM phenylhydrazine and 2.5 μg/mL purified ICL. The reaction was performed at 37 °C for 30 min with and without a prescribed concentration of the inhibitor dissolved in DMSO (final concentration, 0.5%). The formation of glyoxylate phenylhydrazone was followed spectrophotometrically at 324 nm. The effect of the inhibitor on ICL was calculated as a percentage relative to the solvent-treated control. A 12-point, twofold serial dilution dose–response assay was performed in triplicate. The resultant dose–response concentration range was 100 to 0.1 μg/mL of inhibitor in a 1-mL final reaction volume. Data were scaled to internal controls, and a four-parameter logistic model (GraphPad ver. 5.0, Prism) was used to fit the measured data and determine the IC50 values. The ICL inhibitor 3-nitropropionate was used as a positive control. Protein concentration was determined by the method of Bradford using the Bio-Rad protein assay kit (Bio-Rad, Hercules, CA, USA) and bovine serum albumin as a standard.

The subject of assay [2] is C. albicans strain SC5314 (wild-type), MRC10 (Δicl), and MRC11 (Δicl + ICL). The assay can be described thus: Growth phenotype of wild-type and ICL deletion mutants on YNB agar plates. Conditions: 12.5 μg/mL, 3 days at 28 °C. It counts as cell-based, Candida albicans.
Assay [3] deals with ICL mRNA expression in C. albicans. In words: Semi-quantitative RT-PCR analysis of ICL mRNA expression. The assay is classed as cell-based, Candida albicans. Conditions: acetate medium.
In a further assay the target is ICL from C. albicans (Candida albicans, UniProt Q9P8Q7). The assay can be described thus: biochemical. It counts as biochemical. Conditions: for type of inhibition: Lineweaver and Burk plot at IC50 or twofold IC50; for reversibility of binding to enzyme: enzyme activity recovered by dialysis within 2 h. The protocol: To determine the type of inhibition, kinetic studies were performed with compounds 1, 2 and 4 at IC50 or twofold IC50 based on Lineweaver and Burk plot (Figure 3). Inhibitor constants were obtained by Dixon plot.
Sequence of ICL from C. albicans (Q9P8Q7 whole entry): as the sequence (Q9P8Q7 whole entry, the tested form may be a part) above
Figure 3 Lineweaver-Burk plot of ICL inhibition by compounds 1, 2 and 4. [S], substrate concentration [mM]; V, reaction velocity (∆absorbance unit/min). Each data point represents the mean of three experiments.

[4] abbreviates: YNB broth with 2% glucose, read-out: MIC, Glucose.
The mark [5] stands for this setting: YNB broth with 2% potassium acetate, read-out: MIC, Acetate.
The mark [6] stands for this setting: YNB broth with 2% potassium acetate.
The mark [7] stands for this setting: recombinant ICL from C. albicans ATCC 10231, 37 °C, 30 min, mean ± SD (n = 3), read-out: ICL IC50.
[8] abbreviates: recombinant ICL from C. albicans ATCC 10231, value in parentheses.
The mark [9] stands for this setting: recombinant ICL from C. albicans ATCC 10231, value in parentheses, read-out: ICL IC50.

Converted amounts (≈) assume the structure as drawn. “And” between values parts separate entries of the source, which are not always exact repeats. Equal values may be shown once. Read-outs that look alike come from different tables or passages of the source. Some results are limits rather than exact numbers.

In general, MIC refers to the lowest concentration that inhibits growth of the organism. For the molecule `C[C@@H]1[C@H](O)[C@@H](C)/C=C/C=C/C=C/C=C/C=C/C=C/C=C/[C@H](O[C@@H]2O[C@H](C)[C@@H](O)[C@H](N)[C@@H]2O)C[C@@H]2O[C@](O)(C[C@@H](O)C[C@@H](O)[C@H](O)CC[C@@H](O)C[C@@H](O)CC(=O)O[C@H]1C)C[C@H](O)[C@H]2C(=O)O` [Amph B, Amphotericin B, reference compound], the MIC came out at 1.56 µg/mL (≈ 1.69 µM) with C. albicans SC5314 (setting [4]) and 0.39 µg/mL (≈ 0.422 µM) in the assay on C. albicans SC5314 (setting [5]).
Take `C=C(CC(=O)O)C(=O)O` [Itaconate, itaconate, reference compound]: the MIC with C. albicans SC5314 (setting [4]) and in the assay on C. albicans SC5314 (setting [5]) was over 100 µg/mL each time.
For orientation: IC50 means the concentration that inhibits the measured activity by half. Turning to `O=C(O)CC[N+](=O)[O-]` [Compound 3-NP, 3-Nitropropinate, reference compound], in the assay on C. albicans SC5314 (YNB broth with 2% glucose), the “MIC, Glucose” value is given as over 100 µg/mL. Besides, the “MIC, Acetate” value against C. albicans SC5314 (setting [6]) is listed as over 100 µg/mL. Further, in assay [1] (setting [7]), the IC50 was determined as 17.3 ± 1.04 µM. Besides, in assay [1] (setting [8]), the “ICL IC50” value was 2.06 ± 0.12 µg/mL.
Take `CC1(C)CCC[C@]2(C)[C@H]3CC/C(=C\OS(=O)(=O)[O-])[C@H](CCC4=CCNC4=O)[C@@]3(C)CC[C@@H]12.[Na+]` [Compound 9]: the MIC in the assay on C. albicans SC5314 (setting [4]) and in the assay on C. albicans SC5314 (setting [5]) was over 100 µg/mL throughout. Besides, the IC50 is 59.2 ± 1.11 µM in assay [1] (setting [7]) and 59.1 ± 0.54 µM in assay [1] (setting [9]).
`CO[C@H]1C=C(CC[C@H]2/C(=C/OS(=O)(=O)[O-])CC[C@H]3[C@]2(C)CC[C@H]2C(C)(C)CCC[C@]32C)C(=O)O1.[Na+]` [Compound 6]: the values for the MIC in the assay with C. albicans SC5314 (setting [4]) and in the assay with C. albicans SC5314 (setting [5]) were over 100 µg/mL and 100 µg/mL, respectively. The half-inhibitory concentration (IC50) was found to be 96.2 ± 1.54 µM in assay [1] (setting [7]) and 96.08 ± 0.799 µM in assay [1] (setting [9]).
The corresponding values for `CO[C@@H]1C=C(CC[C@H]2/C(=C/OS(=O)(=O)[O-])CC[C@H]3[C@]2(C)CC[C@H]2C(C)(C)CCC[C@]32C)C(=O)O1.[Na+]` [Compound 5] are over 100 µg/mL, over 100 µg/mL, 50.2 ± 6.27 µM and 50.2 ± 3.25 µM.
The term Ki denotes a measure of affinity in units of concentration, obtained from inhibition or displacement. Take `CC1(C)CCC[C@]2(C)[C@H]3CC/C(=C\OS(=O)(=O)[O-])[C@H](CCc4ccoc4)[C@@]3(C)CC[C@@H]12.[Na+]` [Compound 2, suvanine salt]: the “growth on YNB agar plates containing glucose plus compound” value in assay [2] (SC5314, MRC10, MRC11, 2% glucose) is on record as “grew normally”. In addition, the “growth on YNB agar plates containing acetate plus compound” value in assay [2] (all tested strains, 2% sodium acetate) is “inhibited markedly”. Besides, the “reduction of ICL mRNA expression” value in assay [3] (12.5 μg/mL, 4 h at 28 °C, densitometric analysis) is on record as “seventeenfold”. Also, the “ICL transcript levels with increasing compound concentration” value in assay [3] (SC5314 and MRC11, 6.25 and 12.5 µg/mL) is given as “diminished with increasing compound 2 concentrations”. For the same molecule, in the assay on C. albicans SC5314 (setting [4]), the MIC is 100 µg/mL. Besides, the MIC in the assay on C. albicans SC5314 (setting [5]) stood at 12.5 µg/mL. Besides, in the assay on C. albicans SC5314 (setting [6]), the “MIC, Acetate” value was 12.5 µg/mL. Further, the IC50 in assay [1] (ICL IC50) was determined as 6.35 µM. In addition, on ICL from C. albicans, the affinity corresponds to a Ki of 14.4 µM, the type of inhibition entry is given as “mixed noncompetitive inhibitors” and the “reversibility of binding to enzyme” value was “reversible”.
Take `CC1(C)CCC[C@]2(C)[C@H]3CC/C(=C\OS(=O)(=O)[O-])[C@H](CCc4ccoc4)[C@@]3(C)CC[C@@H]12.C[N+](C)=C(N)N` [Compound 1, suvanine salt]: the “MIC, Glucose” value in the assay with C. albicans SC5314 (YNB broth with 2% glucose) amounted to 100 µg/mL. In addition, the “MIC, Acetate” value against C. albicans SC5314 (setting [6]) was determined as 25 µg/mL. The “ICL IC50” value in assay [1] is reported as 22.43 ± 1.49 (12.03 ± 0.80) µg/mL. Moreover, the IC50 in assay [1] (read-out: ICL IC50) was 22.4 µM. For the same molecule, at ICL from C. albicans, the type of inhibition result is on record as “uncompetitive inhibitor” and the “reversibility of binding to enzyme” value is reported as “reversible”. In addition, the Ki at ICL from C. albicans (obtained by Dixon plot, read-out: Ki (inhibitor constant)) came to 17.4 µM.
`CC1(C)CCC[C@]2(C)[C@H]3CC/C(=C\OS(=O)(=O)[O-])[C@H](CCC4=CC(=O)OC4)[C@@]3(C)CC[C@@H]12.[Na+]` [Compound 4]: in the assay on C. albicans SC5314 (setting [4]), the MIC was over 100 µg/mL. Further, the MIC in the assay on C. albicans SC5314 (setting [5]) amounted to 100 µg/mL. In assay [1] (ICL IC50), the IC50 was 26.3 µM and 26.2 µM. On ICL from C. albicans, the affinity, expressed as Ki, was 62.6 µM; the type of inhibition result is reported as “mixed noncompetitive inhibitors”; the “reversibility of binding to enzyme” value was “reversible”.
On to `CO[C@@H]1O[C@H](OC)[C@](O)(CC[C@H]2/C(=C/OS(=O)(=O)O)CC[C@H]3[C@]2(C)CC[C@H]2C(C)(C)CCC[C@]32C)[C@H]1O` [Compound 8], for which the MIC in the assay with C. albicans SC5314 (setting [4]) and in the assay on C. albicans SC5314 (setting [5]) was over 100 µg/mL in each case. Also, the IC50 in assay [1] (ICL IC50) stood at 67.6 µM.
Turning to `CO[C@H]1C=C(CC[C@H]2/C(=C/OS(=O)(=O)[O-])CC[C@H]3[C@]2(C)CC[C@H]2C(C)(C)CCC[C@]32C)[C@@H](OC)O1.[Na+]` [Compound 7], the MIC in the assay on C. albicans SC5314 (setting [4]) and in the assay on C. albicans SC5314 (setting [5]) was over 100 µg/mL each time. Besides, the IC50 in assay [1] (ICL IC50) is 59.1 µM and 51.1 µM.
For `CC1(C)CCC[C@]2(C)[C@H]3CC/C(=C\OS(=O)(=O)[O-])[C@H](CCC4=CC(=O)O[C@@H]4O)[C@@]3(C)CC[C@@H]12.[Na+]` [Compound 3], the MIC in the assay on C. albicans SC5314 (setting [4]) and in the assay with C. albicans SC5314 (setting [5]) was over 100 µg/mL in each case. Further, the IC50 in assay [1] (setting [7]) was 56.2 ± 7.1 µM. In addition, the “ICL IC50” value in assay [1] (setting [8]) stood at 28.33 ± 3.58 µg/mL.

The values are drawn from paper PMC4210890, “Suvanine Sesterterpenes from a Tropical Sponge Coscinoderma sp. Inhibit Isocitrate Lyase in the Glyoxylate Cycle” (Marine Drugs, 2014).
